Measurements reported in US9169241B2, “Quinolinyloxyphenylsulfonamides” (Max-Planck-Gesellschaft Zur Forderung der Wissenschaften …, priority 2009, dated 2015).
Read-outs that look alike come from different tables or passages of the source.

Experiments:
[1] = test system: Hs578T; experiment: Matrigel outgrowth assay/branching assay; assay type: cell-based; details: Homo sapiens, Hs-578T; HS578T cell line; Table Ib; read-out: Total branching inhibition in Matrigel HS578T
Method in brief: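 Invasive outgrowth into a 3 mg/ml Matrigel gel is judged from images taken after 48, 72 and 96 h of exposure to 3.125, 1.56 or 0.78 μM compound, with DMSO as control. Positive means total inhibition of branching.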

[2] = test system: indicated cell line; experiment: Wound healing migration assay (Table IV); assay type: cell-based; details: compounds at 12.5, 6.25, 3.125 μM, 48 h-72 h
Experimental: This method mimics cell migration during wound healing in vivo. The basic steps involve creating a “wound” in a cell monolayer, capturing the images at the beginning and at regular intervals during cell migration to close the wound, and comparing the images to quantify the migration rate of the cells. In detail, 150000 cell/24 well have been seeded and allowed to form a monolayer overnight. Subsequently a “wound” or “scratch” has been performed with a 1000 μl pipette tip. The STDV of wound size is normally below 10% at time point t0. The assay was stopped by fixation with 0.05% Crystal violet/20% methanol when control scratches were closed. The assay was terminated between 48 h and 72 h depending on the migration potential of the indicated cell line. The “wounds” were visualized with a Zeiss Axiovert S100 microscope (Carl Zeiss UK, Welwyn Garden City, UK). The tested compounds were used at 12.5 μM, 6.25, 3.125 μM and DMSO control. IC50 values have been calculated as 50% wound size in between t0 and t48 or t72.

[3] = test system: viable cells in culture; experiment: Cell viability assay at 10 μM (CellTiter-Glo, Table VII); assay type: cell-based; details: compound 10 μM, 72 h;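 also: graded A 0-20%; B 21-40%; C 41-60%; D over 60% viable cells relative to DMSO control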
Method in brief: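 Cells were seeded at 1000 cells/well in 96-well plates in 100 μl culture medium and incubated for 72 h with 10 μM compound or a DMSO control. ATP content, which reflects metabolically active and therefore viable cells, was then determined by CellTiter-Glo luminescence (Promega) per the manufacturer's instructions and expressed relative to the DMSO control.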

[4] = test system: cells; experiment: Boyden chamber migration assay (Table VI); assay type: cell-based; details: Homo sapiens, Hs-578T, 16 h, Hs578T cells; 16 h migration
Experimental: The Boyden chamber assay is based on a chamber of two medium-filled compartments separated by a microporous membrane of 8 μM (Cell culture insert 8.0 μM pore size, BD Biosciences, Bedford, Mass.). The boyden chamber migration assays were carried out according to the supplier's instructions. In general, 20000 cells are placed in the upper compartment with medium containing 0% FCS plus 0.1% BSA and are allowed to migrate 16 h through the pores of the membrane into the lower compartment, which is filled with cell culture medium containing 10% FCS as chemotactic agents. The cells remaining in the insert were removed with a cotton swab, and the cells on the bottom of the filter were fixed and counted. (Zhang Y X, et al. AXL is a potential target for therapeutic intervention in breast cancer progression. Cancer Res. 2008; 68:1905-15).

[5] = test system: SF126; experiment: Apoptosis assay (Cellomics, nucleus condensation); assay type: cell-based; details: Homo sapiens, SF-126, Table III, read-out: Apoptosis induction in SF126
Source text: (§1) The Cellomics BioApplication (Thermo Fischer Cellomics Products, Pittsburgh, Pa.) is an automated image analysis algorithm that provides detailed analysis of phenotypes related to apoptosis. As one of the most prominent characteristics of apoptotics cell a nucleus condensation takes place. This can be measured fluorescence signal intensity using a CCD camera on fully automated microscope system. The Cellomics system is able to quantify the fluorescence intensity per single nucleus and calculates the variation of signal intensity in each cell population. […] Additionally the number of detected cell decreases normally in apoptotic cell populations. In detail 5000 cell per 96 well were labeled with DNA intercalating dye (Hoechst 33342, Sigma, Steinheim, Germany) to visualize the nucleus in a fluorescence microscope under live conditions. The apoptosis assay was performed 24 h and 48 h after addition of compound at concentrations 12.5 μM, 6.25 μM, 3.125 μM, 1.56 μM, 0.78 μM, 0.39 μM as well as DMSO control for 48 h.

[6] = test system: SF763; experiment: Apoptosis assay (Cellomics, nucleus condensation); assay type: cell-based; details: Table III, read-out: Apoptosis induction in SF763
Source text: as §1

[7] = test system: U138; experiment: Apoptosis assay (Cellomics, nucleus condensation); assay type: cell-based; details: Table III, read-out: Apoptosis induction in U138
Source text: as §1

[8] = test system: U118; experiment: Apoptosis assay (Cellomics, nucleus condensation); assay type: cell-based; details: Table III, read-out: Apoptosis induction in U118
Source text: as §1

[9] = test system: Hs578T; experiment: Apoptosis assay (Cellomics, nucleus condensation); assay type: cell-based; details: Homo sapiens, Hs-578T, Table III, read-out: Apoptosis induction in Hs578T
Source text: as §1

[10] = test system: C8161; experiment: Apoptosis assay (Cellomics, nucleus condensation); assay type: cell-based; details: Homo sapiens, Table III, read-out: Apoptosis induction in C8161
Source text: as §1

[11] = test system: tumor cell; experiment: Matrigel outgrowth assay/branching assay (Table Va); assay type: cell-based
Experimental: The Matrigel outgrowth assay is based on the ability of tumor cell to penetrate a solid gel of extracellular matrix proteins mimicking the metastasis formation in vivo. While cells with low invasive potential appear as roundish cell or cell cluster, cells with high invasive potential penetrate the Matrigel and form polymorphic structures. In detail 65 μl of Matrigel matrix (Matrigel™ Matrix, BD Biosciences, Bedford, Mass., USA) with a concentration of 3 mg/ml have been polymerized in 96 well plates for 1 h at 37° C. Subsequently 5000 cell/well were seeded into each well containing cell culture medium and indicated compound with concentrations of 3.125 μM, 1.56 μM and 0.78 μM as well as DMSO control. After 48 h, 72 h and 96 h images of cell were taken on an inverted microscope using a 5× objective (Zeiss Axiovert S100 microscope Carl Zeiss UK, Welwyn Garden City, UK). Only compound concentrations were total branching inhibition was evident were accounted as positive. Method was used as previously described, with some modifications (Thompson E W, et al. Association of increased basement membrane invasiveness with absence of estrogen receptor and expression of vimentin in human breast cancer cell lines. J Cell Physiol 1992; 150:534-44).

[12] = Homo sapiens, C8161 cells, read-out: IC50 Wound healing Assay C8161
[13] = SF763 cells, read-out: IC50 Wound healing Assay SF763
[14] = Homo sapiens, HCT-116, HCT116 def, read-out: percentage (%) of viable cells HCT 116def
[15] = Homo sapiens, HCT-116, HCT116 wt, read-out: percentage (%) of viable cells HCT 116wt
[16] = Homo sapiens, HT-29, HT29, read-out: percentage (%) of viable cells HT29
[17] = Homo sapiens, NCI-H358, H358, read-out: percentage (%) of viable cells H358
[18] = Homo sapiens, NCI-H1650, H1650, read-out: percentage (%) of viable cells H1650
[19] = Homo sapiens, NCI-H1666, H1666, read-out: percentage (%) of viable cells H1666
[20] = Homo sapiens, NCI-H1975, H1975, read-out: percentage (%) of viable cells H1975
[21] = Homo sapiens, NCI-H1993, H1993, read-out: percentage (%) of viable cells H1993
[22] = Homo sapiens, A549, read-out: percentage (%) of viable cells A549
[23] = Homo sapiens, HCC827, read-out: percentage (%) of viable cells HCC827
[24] = Homo sapiens, SW480, read-out: percentage (%) of viable cells SW480
[25] = RKO, read-out: percentage (%) of viable cells RKO
[26] = Homo sapiens, C8161 cells, read-out: Total branching inhibition in Matrigel C8161
[27] = Homo sapiens, Hs-578T, Hs578T cells, read-out: Total branching inhibition in Matrigel Hs578T
[28] = U118 cells, read-out: Total branching inhibition in Matrigel U118
[29] = U138 cells, read-out: Total branching inhibition in Matrigel U138

SMILES	IC50 [1] [µM]	IC50 [2, 12] [µM]	viability at 10 µM [3, 14] [%]	viability at 10 µM [3, 15] [%]	viability at 10 µM [3, 16] [%]	viability at 10 µM [3, 17] [%]	viability at 10 µM [3, 18] [%]	viability at 10 µM [3, 19] [%]	viability at 10 µM [3, 20] [%]	viability at 10 µM [3, 21] [%]	viability at 10 µM [3, 22] [%]	viability at 10 µM [3, 23] [%]	viability at 10 µM [3, 24] [%]	viability at 10 µM [3, 25] [%]	IC50 [4] [µM]	melting point [°C]	IC50 [5] [µM]	IC50 [6] [µM]	IC50 [7] [µM]	IC50 [8] [µM]	further results
COc1cc(S(=O)(=O)Nc2ccc(Oc3ccnc4cc(OCCCN5CCN(C)CC5)c(OC)cc34)c(F)c2)ccc1F [Example 18, 4-Fluoro-N-(3-fluoro-4-{6-methoxy-7-[3-(4-methyl-piperazin-1-yl)-propoxy]-quinolin-4-yloxy}-phenyl)-3-methoxy-benzenesulfonamide]	≤ 10	≤ 12.5	0 to 20	0 to 20	0 to 20	0 to 20	21 to 40	21 to 40	0 to 20	0 to 20	21 to 40	21 to 40	0 to 20	0 to 20	≤ 5	167 to 169	≤ 12.5	≤ 12.5	≤ 12.5	≤ 12.5	IC50 [2, 13]: 12.5 to 50 µM; IC50 [9]: ≤ 12.5 µM; IC50 [10]: ≤ 12.5 µM; IC50 [11, 26]: ≤ 5 µM; IC50 [11, 27]: ≤ 5 µM; IC50 [11, 28]: ≤ 5 µM; IC50 [11, 29]: ≤ 5 µM
COc1cc2c(Oc3ccc(NS(=O)(=O)c4ccc(Cl)cc4F)cc3F)ccnc2cc1OCCCN1CCN(C)CC1 [Example 27, 4-Chloro-2-fluoro-N-(3-fluoro-4-{6-methoxy-7-[3-(4-methyl-piperazin-1-yl)-propoxy]-quinolin-4-yloxy}-phenyl)-benzenesulfonamide]	≤ 10	12.5 to 50	0 to 20	0 to 20	21 to 40	0 to 20	41 to 60	41 to 60	21 to 40	0 to 20	> 60	> 60	0 to 20	0 to 20	≤ 5	106 to 110	12.5 to 50	≤ 12.5	≤ 12.5	≤ 12.5	IC50 [2, 13]: ≤ 12.5 µM; IC50 [9]: ≤ 12.5 µM; IC50 [10]: ≤ 12.5 µM; IC50 [11, 26]: ≤ 5 µM; IC50 [11, 27]: ≤ 5 µM; IC50 [11, 28]: ≤ 5 µM; IC50 [11, 29]: ≤ 5 µM
COc1cc2c(Oc3ccc(NS(=O)(=O)c4ccccc4C)cc3F)ccnc2cc1OCCCN1CCN(C)CC1 [Example 28, N-(3-Fluoro-4-{6-methoxy-7-[3-(4-methyl-piperazin-1-yl)-propoxy]-quinolin-4-yloxy}-phenyl)-2-methyl-benzenesulfonamide]	10 to 25	≤ 12.5	21 to 40	21 to 40	21 to 40	0 to 20	21 to 40	41 to 60	21 to 40	21 to 40	21 to 40	21 to 40	0 to 20	0 to 20	≤ 5	73 to 75	≤ 12.5	≤ 12.5	≤ 12.5	≤ 12.5	IC50 [2, 13]: ≤ 12.5 µM; IC50 [9]: ≤ 12.5 µM; IC50 [10]: ≤ 12.5 µM; IC50 [11, 26]: ≤ 5 µM; IC50 [11, 27]: 5 to 50 µM; IC50 [11, 28]: ≤ 5 µM; IC50 [11, 29]: ≤ 5 µM
COc1cc2c(Oc3ccc(NS(=O)(=O)c4cc(Cl)cc(Cl)c4OC)cc3F)ccnc2cc1OCCCN1CCCC(C)C1 (centres unmarked) [Example 75, 3,5-Dichloro-N-(3-fluoro-4-{6-methoxy-7-[3-(3-methyl-piperidin-1-yl)-propoxy]-quinolin-4-yloxy}-phenyl)-2-methoxy-benzenesulfonamide]	≤ 10	12.5 to 50	21 to 40	21 to 40	0 to 20	0 to 20	21 to 40	41 to 60	0 to 20	21 to 40	> 60	> 60	0 to 20	0 to 20	≤ 5	145 to 146	≤ 12.5	≤ 12.5	≤ 12.5	≤ 12.5	IC50 [9]: ≤ 12.5 µM; IC50 [10]: ≤ 12.5 µM; IC50 [11, 26]: ≤ 5 µM; IC50 [11, 27]: ≤ 5 µM; IC50 [11, 28]: ≤ 5 µM; IC50 [11, 29]: 5 to 50 µM
